Experimental findings from patent US8969325B2, “TRPV1 antagonists” (AbbVie Inc., priority 2011, dated 2015) are described below.

Experiment [1] concerns the target T1, human TRPV1 (Homo sapiens (Human), UniProt Q8NER1). The experiment is described as follows: Acid Activation Assay (pH 5.0, intracellular Ca2+, FLIPR). Type of experiment: cell-based. As to conditions: percentage of the maximal pH 5.0-induced response remaining; recombinant HEK293 hTRPV1 cells; maximum concentration tested 37.5 μM. Summed up:
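Readout: peak [Ca2+]i fluorescence over baseline on FLIPR, expressed as percentage remaining of the maximal pH 5.0-evoked signal. Stable hTRPV1-HEK293 cells with Calcium-4 dye received compound (12 half-log concentrations, maximum 37.5 μM) 3 min before acidic pH 5.0 buffer.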

In experiment [2] the target is T1, human TRPV1. The experiment in a line: Capsaicin Activation Assay (intracellular Ca2+, FLIPR). Type of experiment: cell-based. To be noted: recombinant HEK293 cells expressing hTRPV1, 50 nM capsaicin. In outline:
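Ca2+ fluorescence was recorded by FLIPR every 1 to 5 seconds in HEK293 cells, clonally selected for stable human TRPV1 expression and plated one day ahead. Test compounds came as serial dilutions of 10 mM DMSO stocks.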

T1 sequence (Q8NER1 whole entry): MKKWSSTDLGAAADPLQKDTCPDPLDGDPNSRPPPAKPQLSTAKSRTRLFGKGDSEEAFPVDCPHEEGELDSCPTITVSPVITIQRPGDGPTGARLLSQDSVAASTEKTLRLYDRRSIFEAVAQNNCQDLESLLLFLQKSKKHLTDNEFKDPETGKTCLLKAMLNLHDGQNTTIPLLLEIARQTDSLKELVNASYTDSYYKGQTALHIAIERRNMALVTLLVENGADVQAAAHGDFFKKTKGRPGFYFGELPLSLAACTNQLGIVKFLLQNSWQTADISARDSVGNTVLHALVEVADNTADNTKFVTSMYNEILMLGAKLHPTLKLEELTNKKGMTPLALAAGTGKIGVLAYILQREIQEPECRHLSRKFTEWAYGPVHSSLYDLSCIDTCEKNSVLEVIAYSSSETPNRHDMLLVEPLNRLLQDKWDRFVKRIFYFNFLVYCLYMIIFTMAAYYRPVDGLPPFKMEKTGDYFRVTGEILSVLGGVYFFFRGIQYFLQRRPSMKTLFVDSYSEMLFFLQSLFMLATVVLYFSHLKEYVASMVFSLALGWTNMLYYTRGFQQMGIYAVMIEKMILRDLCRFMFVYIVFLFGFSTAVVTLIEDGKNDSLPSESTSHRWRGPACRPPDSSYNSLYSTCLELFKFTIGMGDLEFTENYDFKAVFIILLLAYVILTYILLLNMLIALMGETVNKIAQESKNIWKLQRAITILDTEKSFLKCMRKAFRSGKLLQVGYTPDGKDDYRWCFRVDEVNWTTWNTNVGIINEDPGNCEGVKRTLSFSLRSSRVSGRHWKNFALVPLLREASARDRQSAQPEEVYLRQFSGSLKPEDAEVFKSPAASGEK

One may read the IC50 as the point on the concentration scale where inhibition reaches its midpoint. For the molecule `O=C(Nc1ccc2c(c1)NC(=O)C(N1CCCOCC1)C2)N[C@@H]1CC(CF)(CF)Oc2cc(Cl)ccc21` (stereo partly drawn) [Example 302, 1-[(4R)-7-chloro-2,2-bis(fluoromethyl)-3,4-dihydro-2H-chromen-4-yl]-3-[3-(1,4-oxazepan-4-yl)-2-oxo-1,2,3,4-tetrahydroquinolin-7-yl]urea], the “human TRPV1 H^+ (max % remain)” value in experiment [1] was 36%. Besides, in experiment [2], the IC50 is 200 nM.

For the molecule `CC1(C)C[C@@H](NC(=O)Nc2ccc3c(c2)NC(=O)C(N2CCCOCC2)C3)c2ccc(F)cc2O1` (stereo partly drawn) [Example 303, 1-[(4R)-7-fluoro-2,2-dimethyl-3,4-dihydro-2H-chromen-4-yl]-3-[3-(1,4-oxazepan-4-yl)-2-oxo-1,2,3,4-tetrahydroquinolin-7-yl]urea], the “human TRPV1 H^+ (max % remain)” value in experiment [1] is given as 2%. Also, the IC50 in experiment [2] amounted to 610 nM.

Consider `CN(CCO)C1Cc2ccc(NC(=O)N[C@@H]3CC(CF)(CF)Oc4cc(Cl)ccc43)cc2NC1=O` (stereo partly drawn) [Example 304, 1-[(4R)-7-chloro-2,2-bis(fluoromethyl)-3,4-dihydro-2H-chromen-4-yl]-3-{3-[(2-hydroxyethyl)(methyl)amino]-2-oxo-1,2,3,4-tetrahydroquinolin-7-yl}urea], for which the “human TRPV1 H^+ (max % remain)” value in experiment [1] was determined as 0%. Moreover, in experiment [2], the IC50 turned out to be 230 nM.

Regarding `COCCN(C)C1Cc2ccc(NC(=O)N[C@@H]3CC(C)(C)Oc4cc(F)ccc43)cc2NC1=O` (stereo partly drawn) [Example 305, 1-[(4R)-7-fluoro-2,2-dimethyl-3,4-dihydro-2H-chromen-4-yl]-3-{3-[(2-methoxyethyl)(methyl)amino]-2-oxo-1,2,3,4-tetrahydroquinolin-7-yl}urea], in experiment [1], the “human TRPV1 H^+ (max % remain)” value was found to be 26%. Further, the IC50 in experiment [2] is 2000 nM.

Take `COCCN(C)C1Cc2ccc(NC(=O)N[C@@H]3CC(CF)(CF)Oc4cc(Cl)ccc43)cc2NC1=O` (stereo partly drawn) [Example 306, 1-[(4R)-7-chloro-2,2-bis(fluoromethyl)-3,4-dihydro-2H-chromen-4-yl]-3-{3-[(2-methoxyethyl)(methyl)amino]-2-oxo-1,2,3,4-tetrahydroquinolin-7-yl}urea]: the “human TRPV1 H^+ (max % remain)” value in experiment [1] was 31%. Further, the IC50 in experiment [2] amounted to 440 nM.

In the case of `CC1(C)C[C@@H](NC(=O)Nc2ccc3c(c2)NC(=O)N(CCO)C3)c2cccc(C(F)(F)F)c2O1` [Example 307, 1-[(4R)-2,2-dimethyl-8-(trifluoromethyl)-3,4-dihydro-2H-chromen-4-yl]-3-[3-(2-hydroxyethyl)-2-oxo-1,2,3,4-tetrahydroquinazolin-7-yl]urea], the “human TRPV1 H^+ (max % remain)” value in experiment [1] was 37%. Further, the concentration for half-maximal inhibition (IC50) in experiment [2] worked out at 1300 nM.

For the molecule `O=C(Nc1ccc2c(c1)NC(=O)N(CCO)C2)N[C@@H]1CCOc2ccccc21` [Example 308, 1-[(4R)-3,4-dihydro-2H-chromen-4-yl]-3-[3-(2-hydroxyethyl)-2-oxo-1,2,3,4-tetrahydroquinazolin-7-yl]urea], the “human TRPV1 H^+ (max % remain)” value in experiment [1] is 3%. In addition, the IC50 in experiment [2] was 68 nM.

In the case of `O=C(Nc1ccc2c(c1)NC(=O)N(CCO)C2)N[C@@H]1CC(CF)(CF)Oc2cc(C(F)(F)F)ccc21` [Example 309, 1-[(4R)-2,2-bis(fluoromethyl)-7-(trifluoromethyl)-3,4-dihydro-2H-chromen-4-yl]-3-[3-(2-hydroxyethyl)-2-oxo-1,2,3,4-tetrahydroquinazolin-7-yl]urea], in experiment [1], the “human TRPV1 H^+ (max % remain)” value is reported as 36%. Also, the IC50 in experiment [2] was found to be 18000 nM.

As for `CCCC1(CCC)C[C@@H](NC(=O)Nc2ccc3c(c2)NC(=O)N(CCO)C3)c2cc(F)ccc2O1` [Example 310, 1-[(4R)-6-fluoro-2,2-dipropyl-3,4-dihydro-2H-chromen-4-yl]-3-[3-(2-hydroxyethyl)-2-oxo-1,2,3,4-tetrahydroquinazolin-7-yl]urea], in experiment [1], the “human TRPV1 H^+ (max % remain)” value came out at 2%. The half-maximal inhibitory concentration (IC50) in experiment [2] worked out at 190 nM.

As for `CCCC1(CCC)C[C@@H](NC(=O)Nc2ccc3c(c2)NC(=O)N(CCO)C3)c2cccc(F)c2O1` [Example 311, 1-[(4R)-8-fluoro-2,2-dipropyl-3,4-dihydro-2H-chromen-4-yl]-3-[3-(2-hydroxyethyl)-2-oxo-1,2,3,4-tetrahydroquinazolin-7-yl]urea], the “human TRPV1 H^+ (max % remain)” value in experiment [1] amounted to 14%. In addition, in experiment [2], the IC50 was 150 nM.

For `CC1(C)C[C@@H](NC(=O)Nc2ccc3c(c2)NC(=O)N(CCO)C3)c2ccc(F)c(Cl)c2O1` [Example 312, 1-[(4R)-8-chloro-7-fluoro-2,2-dimethyl-3,4-dihydro-2H-chromen-4-yl]-3-[3-(2-hydroxyethyl)-2-oxo-1,2,3,4-tetrahydroquinazolin-7-yl]urea], in experiment [1], the “human TRPV1 H^+ (max % remain)” value turned out to be 36%. In experiment [2], the IC50 is 200 nM.

Regarding `CC1(C)C[C@@H](NC(=O)Nc2ccc3c(c2)NC(=O)N(CCO)C3)c2ccc(Cl)cc2O1` [Example 313, 1-[(4R)-7-chloro-2,2-dimethyl-3,4-dihydro-2H-chromen-4-yl]-3-[3-(2-hydroxyethyl)-2-oxo-1,2,3,4-tetrahydroquinazolin-7-yl]urea], the “human TRPV1 H^+ (max % remain)” value in experiment [1] was determined as 4%. Further, in experiment [2], the IC50 was 76 nM.

For `O=C(Nc1ccc2c(c1)NC(=O)N(CCO)C2)N[C@@H]1CC(CF)(CF)Oc2ccccc21` [Example 314, 1-[(4R)-2,2-bis(fluoromethyl)-3,4-dihydro-2H-chromen-4-yl]-3-[3-(2-hydroxyethyl)-2-oxo-1,2,3,4-tetrahydroquinazolin-7-yl]urea], in experiment [1], the “human TRPV1 H^+ (max % remain)” value stood at 0%. The IC50 in experiment [2] amounted to 57 nM.

Take `O=C(Nc1ccc2c(c1)NC(=O)N(CCO)C2)N[C@@H]1CC(CF)(CF)Oc2c(F)cccc21` [Example 315, 1-[(4R)-8-fluoro-2,2-bis(fluoromethyl)-3,4-dihydro-2H-chromen-4-yl]-3-[3-(2-hydroxyethyl)-2-oxo-1,2,3,4-tetrahydroquinazolin-7-yl]urea]: in experiment [1], the “human TRPV1 H^+ (max % remain)” value was found to be 18%. In experiment [2], the IC50 was 830 nM.

On to `O=C(Nc1ccc2c(c1)NC(=O)N(CCO)C2)N[C@@H]1CC(CF)(CF)Oc2cc(Cl)ccc21` [Example 316, 1-[(4R)-7-chloro-2,2-bis(fluoromethyl)-3,4-dihydro-2H-chromen-4-yl]-3-[3-(2-hydroxyethyl)-2-oxo-1,2,3,4-tetrahydroquinazolin-7-yl]urea], for which the “human TRPV1 H^+ (max % remain)” value in experiment [1] came out at 20%. Further, in experiment [2], the IC50 was 1900 nM.

On to `O=C(Nc1ccc2c(c1)NC(=O)N(CCO)C2)N[C@@H]1CC2(CCCC2)Oc2ccccc21` [Example 317, 1-[(4R)-3,4-dihydrospiro[chromene-2,1′-cyclopentan]-4-yl]-3-[3-(2-hydroxyethyl)-2-oxo-1,2,3,4-tetrahydroquinazolin-7-yl]urea], for which, in experiment [1], the “human TRPV1 H^+ (max % remain)” value is listed as 17%. For the same molecule, in experiment [2], the IC50 turned out to be 600 nM.

As for `C[C@@]1(C(F)F)C[C@@H](NC(=O)Nc2ccc3c(c2)NC(=O)N(CCO)C3)c2ccccc2O1` [Example 318, 1-[(2S,4R)-2-(difluoromethyl)-2-methyl-3,4-dihydro-2H-chromen-4-yl]-3-[3-(2-hydroxyethyl)-2-oxo-1,2,3,4-tetrahydroquinazolin-7-yl]urea], in experiment [1], the “human TRPV1 H^+ (max % remain)” value turned out to be 14%. The concentration for half-maximal inhibition (IC50) in experiment [2] is 590 nM.

As for `O=C(Nc1ccc2c(c1)NC(=O)N(CCO)C2)N[C@@H]1CC(CF)(CF)Oc2cc(F)ccc21` [Example 319, 1-[(4R)-7-fluoro-2,2-bis(fluoromethyl)-3,4-dihydro-2H-chromen-4-yl]-3-[3-(2-hydroxyethyl)-2-oxo-1,2,3,4-tetrahydroquinazolin-7-yl]urea], the “human TRPV1 H^+ (max % remain)” value in experiment [1] amounted to 21%. Besides, the IC50 in experiment [2] worked out at 5000 nM.

With `O=C1CCc2ccc(NC(=O)N[C@@H]3CC(CF)(CF)Oc4cc(C(F)(F)F)ccc43)cc2N1` [Example 320, 1-[(4R)-2,2-bis(fluoromethyl)-7-(trifluoromethyl)-3,4-dihydro-2H-chromen-4-yl]-3-(2-oxo-1,2,3,4-tetrahydroquinolin-7-yl)urea], the “human TRPV1 H^+ (max % remain)” value in experiment [1] came out at 80%. Also, in experiment [2], the IC50 came out at 12 nM.

Turning to `C[C@@]1(C(F)F)C[C@@H](NC(=O)Nc2ccc3c(c2)NC(=O)CO3)c2ccc(Cl)cc2O1` [Example 322, 1-[(2S,4R)-7-chloro-2-(difluoromethyl)-2-methyl-3,4-dihydro-2H-chromen-4-yl]-3-(3-oxo-3,4-dihydro-2H-1,4-benzoxazin-6-yl)urea], the “human TRPV1 H^+ (max % remain)” value in experiment [1] amounted to 76%. Further, the 50% inhibitory concentration (IC50) in experiment [2] was found to be 46 nM.

As to `O=C1COc2c(cccc2NC(=O)N[C@@H]2CC(CF)(CF)Oc3cc(Cl)ccc32)N1` [Example 323, 1-[(4R)-7-chloro-2,2-bis(fluoromethyl)-3,4-dihydro-2H-chromen-4-yl]-3-(3-oxo-3,4-dihydro-2H-1,4-benzoxazin-8-yl)urea], in experiment [1], the “human TRPV1 H^+ (max % remain)” value came to 0%. The IC50 in experiment [2] amounted to 4.5 nM.

Regarding `CC1(C)C[C@@H](NC(=O)Nc2ccc3c(c2)NC(=O)CO3)c2ccc(Cl)c(F)c2O1` [Example 325, 1-[(4R)-7-chloro-8-fluoro-2,2-dimethyl-3,4-dihydro-2H-chromen-4-yl]-3-(3-oxo-3,4-dihydro-2H-1,4-benzoxazin-6-yl)urea], the “human TRPV1 H^+ (max % remain)” value in experiment [1] is on record as 83%. In addition, the IC50 in experiment [2] stood at 21 nM.

Consider `CN1C(=O)CCc2ccc(NC(=O)N[C@@H]3C[C@](C)(C(F)(F)F)Oc4ccccc43)cc21` [Example 326, 1-(1-methyl-2-oxo-1,2,3,4-tetrahydroquinolin-7-yl)-3-[(2R,4R)-2-methyl-2-(trifluoromethyl)-3,4-dihydro-2H-chromen-4-yl]urea], for which the “human TRPV1 H^+ (max % remain)” value in experiment [1] is 80%. The IC50 in experiment [2] turned out to be 32 nM.
